Read-outs that look alike come from different tables or passages of the source.
Assays:
[1] = Phase 1 multiple oral dose (300, 450, 600 mg once daily x 5 days) crossover study: plasma pharmacokinetics; conditions: for Day 1 PK Summary, Geom. Mean / Day 1 PK Summary, Mean / Day 5 PK Summary, Geom. Mean / Day 5 PK Summary, Mean: preliminary results; for half-life / Tmax / AUC(0-t) / Cmax: human; for half-life: in vivo; for Tmax / AUC(0-t) / Cmax: plasma; for Cmax: Mean Cmax; for exposure (dose-normalized AUC0-24) as % of that predicted if perfectly dose-proportional: increase in dose from 300 mg to 600 mg
Source text: Thus the study was designed as a Phase 1, randomized, double-blind, 3-period, crossover study in healthy adult subjects. The study consisted of a screening period (Day −21 through Day −2), 3 baseline periods (Day −1 of each period), 3 treatment periods (Day 1 through Day 6 of each period), and a study completion visit (within 6 to 10 days after the last dose of study drug in Period 3). There was a washout of at least 5 days between the last dose in one period and the first dose in the next period. Subjects were confined to the study site from Day −1 of Period 1 until discharge on Day 6 of Period 3, after the 24-hour blood sampling, urine sampling, and safety assessments were completed. Subjects returned to the study center 6 to 10 days after the last dose of study drug in Period 3 for the study completion visit.
All doses of study drug were administered in the morning with no food or drink except for water at least 6 hours prior to dosing. Subjects then had no food or drink except water for at least 2 hours after dosing and no dairy products, antacids, or multivitamins for 4 hours after dosing.
The 24-hour blood sample for Day 1 was collected prior to dosing on Day 2 for each period.
Point estimates and 90% CIs for differences on the log scale were exponentiated to obtain estimates for the ratios of geometric means and respective 90% CIs on the original scale. No adjustment was made for multiplicity.
The estimates of slope b were reported along with the corresponding 2-sided 90% CIs.

[2] = Prior Phase 1 studies: bioavailability / bioequivalence of oral tablet formulation; set-up: species or system human; conditions: in vivo; for bioavailability: human
[3] = Phase 1 food-effect study: safety and tolerability; type: in vivo, human
Method: Safety and tolerability was assessed by: Adverse events (AEs); vital sign measurements at multiple time-points within 24 hours post-dose in each treatment period; and clinical laboratory tests 24 hours post-dose in each treatment period.

[4] = single 300 mg oral dose, healthy subjects

CN(C)c1cc(CNCC(C)(C)C)c(O)c2c1C[C@H]1C[C@H]3[C@H](N(C)C)C(O)=C(C(N)=O)C(=O)[C@@]3(O)C(O)=C1C2=O [Omadacycline, 9-[(2,2-dimethyl-propylamino)-methyl]-minocycline]
Mean AUC0-24 ([1]; 300 mg oral once daily, Day 5): 9267.2 ng·h/mL
Cmax/Dose, Geometric LS Means ([1]; 300 mg, Day 1): 2.09 ng/mL/mg
Cmax/Dose, Geometric LS Means ([1]; 300 mg, Day 5): 2.62 ng/mL/mg
Cmax/Dose, Geometric LS Means ([1]; 450 mg, Day 1): 1.81 ng/mL/mg
Cmax/Dose, Geometric LS Means ([1]; 450 mg, Day 5): 2.32 ng/mL/mg
Cmax/Dose, Geometric LS Means ([1]; 600 mg, Day 1): 1.54 ng/mL/mg
Cmax/Dose, Geometric LS Means ([1]; 600 mg, Day 5): 2.11 ng/mL/mg
Day 1 PK Summary, Geom. Mean ([1]; 300 (dose), Day 1): 6,293.65
Day 1 PK Summary, Mean ([1]; 300 (dose), Day 1): 6,560.73
Day 5 PK Summary, Geom. Mean ([1]; 300 (dose), Day 5): 8,990.55
Day 5 PK Summary, Mean ([1]; 300 (dose), Day 5): 9,351.02
Day 1 PK Summary, Geom. Mean ([1]; 450 (dose), Day 1): 8,382.03
Day 1 PK Summary, Mean ([1]; 450 (dose), Day 1): 8,959.13
Day 5 PK Summary, Geom. Mean ([1]; 450 (dose), Day 5): 12,883.95
Day 5 PK Summary, Mean ([1]; 450 (dose), Day 5): 13,363.54
Day 1 PK Summary, Geom. Mean ([1]; 600 (dose), Day 1): 9,644.67
Day 1 PK Summary, Mean ([1]; 600 (dose), Day 1): 9,990.20
Day 5 PK Summary, Geom. Mean ([1]; 600 (dose), Day 5): 15,431.37
Day 5 PK Summary, Mean ([1]; 600 (dose), Day 5): 16,171.61
systemic exposure on Day 5 higher than on Day 1 ([1]; all tested dose levels): ~50%
half-life ([1]; mean half-life in plasma (T1/2), across the 3 tested dose levels, Day 1): ~13 h
half-life ([1]; mean half-life in plasma (T1/2), across the 3 tested dose levels, Day 5): ~16 h
half-life ([1]; po, 300 mg, Mean T1/2, 300 mg oral once daily, Day 1): 13.7 h
half-life ([1]; po, 300 mg, Mean T1/2, 300 mg oral once daily, Day 5): 15.5 h
half-life ([1]; po, 450 mg, Mean T1/2, 450 mg oral once daily, Day 1): 13.4 h
half-life ([1]; po, 450 mg, Mean T1/2, 450 mg oral once daily, Day 5): 16.8 h
half-life ([1]; po, 600 mg, Mean T1/2, 600 mg oral once daily, Day 1): 13 h
half-life ([1]; po, 600 mg, Mean T1/2, 600 mg oral once daily, Day 5): 16.8 h
Tmax ([1]; oral, 600 mg, time at which mean plasma concentrations peaked (Tmax), all tested dose levels (300, 450, 600 mg), Day 1 and Day 5): 2.5 h
AUC(0-t) ([1]; po, 300 mg, Mean AUC0-24, 300 mg oral once daily, Day 1): 6640 ng·h/mL
AUC(0-t) ([1]; po, 300 mg, Mean AUC0-24, 300 mg oral once daily, Day 5): 9270 ng·h/mL
Cmax ([1]; po, 300 mg, 300 mg oral once daily, Day 1): 649 ng/mL
Cmax ([1]; po, 300 mg, 300 mg oral once daily, Day 5): 809 ng/mL
Tmax ([1]; po, 300 mg, Mean Tmax, 300 mg oral once daily, Day 1): 2.5 h
Tmax ([1]; po, 300 mg, Mean Tmax, 300 mg oral once daily, Day 5): 2.5 h
AUC(0-t) ([1]; po, 450 mg, Mean AUC0-24, 450 mg oral once daily, Day 1): 8980 ng·h/mL
AUC(0-t) ([1]; po, 450 mg, Mean AUC0-24, 450 mg oral once daily, Day 5): 13400 ng·h/mL
Cmax ([1]; po, 450 mg, 450 mg oral once daily, Day 1): 874 ng/mL
Cmax ([1]; po, 450 mg, 450 mg oral once daily, Day 5): 1080 ng/mL
Tmax ([1]; po, 450 mg, Mean Tmax, 450 mg oral once daily, Day 1): 2.5 h
Tmax ([1]; po, 450 mg, Mean Tmax, 450 mg oral once daily, Day 5): 2.5 h
AUC(0-t) ([1]; po, 600 mg, Mean AUC0-24, 600 mg oral once daily, Day 1): 10000 ng·h/mL
AUC(0-t) ([1]; po, 600 mg, Mean AUC0-24, 600 mg oral once daily, Day 5): 16400 ng·h/mL
Cmax ([1]; po, 600 mg, 600 mg oral once daily, Day 1): 954 ng/mL
Cmax ([1]; po, 600 mg, 600 mg oral once daily, Day 5): 1310 ng/mL
Tmax ([1]; po, 600 mg, Mean Tmax, 600 mg oral once daily, Day 1): 2.51 h
Tmax ([1]; po, 600 mg, Mean Tmax, 600 mg oral once daily, Day 5): 2.5 h
exposure (dose-normalized AUC0-24) as % of that predicted if perfectly dose-proportional ([1]; Day 1): 76%
exposure (dose-normalized AUC0-24) as % of that predicted if perfectly dose-proportional ([1]; Day 5): 88%
bioavailability [2]: 35%
bioavailability ([2]; phase 3 tablet formulation (tosylate salt), fasting conditions, read-out: absolute bioavailability): 34.5%
bioequivalence of oral and i.v. dose (based on serum AUC) [2]: bioequivalent
serious AE (SAE) [3, 4]: no subject experienced a serious AE
treatment-related adverse events, clinically relevant changes in laboratory values or vital signs [3, 4]: No treatment-related adverse events or clinically relevant changes in laboratory values, or vital signs occurred
median change from baseline in heart rate ([3]; single 300 mg oral dose, all other treatment groups, all measured time points): ≤ 3 bpm
tolerability ([3]; single oral dose (300 mg), healthy subjects): well tolerated

Reference: patent US10111890B2, “9-aminomethyl minocycline compounds and uses thereof” (Paratek Pharmaceuticals, Inc., priority 2016, dated 2018)
